The record followed here is patent publication US4061862A, “Derivatives of 7-(cyclized)phenylglycyl-3-triazolo-thio methyl cephalosporin” (priority 1976, dated 1977).

The test system of one series is S. pneumoniae A9585. The series is described as follows: Antibiotic spectrum in nutrient broth, MIC. The series is classed as cell-based. The note with it: Streptococcus pneumoniae, 10^-3 dilution of overnight culture, 45% AAB + 5% serum + 50% broth, BL-S1052 adjusted for 97.5% content of BL-S640. An excerpt: (§1) Antibiotic Spectrum in Nutrient Broth
(§2) *45% AAB + 5% serum + 50% broth listed above.
(§3) **Dilution of overnight broth culture.
(§4) ^(1) Adjusted for 97.5% content of BL-S640. In other words, the
(§5) numerical values are lowered, i.e. improved. This adjustment was also mad
(§6) in the tests reported below or in the alternative, a larger weight was
(§7) used to provide equivalent dosage.

The next series concerns Str. pyogenes A9604. Briefly: Antibiotic spectrum in nutrient broth, MIC. Type of series: cell-based. The note with it: Streptococcus pyogenes, 10^-3 dilution of overnight culture, 45% AAB + 5% serum + 50% broth, BL-S1052 adjusted for 97.5% content of BL-S640.
Text: as §1, §2, §3, §4, §5, §6, §7

A short description of series [1]: Urinary recovery after IM administration to rats. The series is classed as in vivo. The note with it: rat, urine, read-out: Urinary recovery, percentage of administered dose recovered; for dose excreted at 6 h: 0-6 hr. On the procedure:
Urinary Recovery after IM
Administration of 50 and 10 mg./kg. to Rats
(§8) The compounds were prepared in 0.01% phosphate buffer. BL-S640 was used a
(§9) standard for all compounds.

Another series has as its system S. aureus BX1633. Briefly: Antibiotic spectrum in nutrient broth, MIC. The series is classed as cell-based. The note with it: Staphylococcus aureus, BL-S1052 adjusted for 97.5% content of BL-S640, read-out: MIC.
Text: as §1, §3
(§10) This adjustment was also mad
as §6, §7

The subject of another series is Pr. morganii A15153. The series is described as follows: Antibiotic spectrum in nutrient broth, MIC. The series is classed as cell-based. The note with it: Morganella morganii, 10^-4 dilution, BL-S1052 adjusted for 97.5% content of BL-S640.
Text: as §1, §3, §10, §6, §7

Another series has as its system Ent. cloacae A9659. Briefly: Antibiotic spectrum in nutrient broth, MIC. The series is classed as cell-based. The note with it: Enterobacter cloacae, 10^-4 dilution, BL-S1052 adjusted for 97.5% content of BL-S640.
Text: as §1, §3, §10, §6, §7

Another series has as its system K. pneumoniae A15130. Briefly: Antibiotic spectrum in nutrient broth, MIC. The series is classed as cell-based. The note with it: Klebsiella pneumoniae, 10^-4 dilution, BL-S1052 adjusted for 97.5% content of BL-S640.
Text: as §1, §3, §4, §5, §6, §7

The subject of the next series is Sal. enteritidis A9531. The series is described as follows: Antibiotic spectrum in nutrient broth, MIC. The series is classed as cell-based. The note with it: Salmonella enterica, 10^-4 dilution, BL-S1052 adjusted for 97.5% content of BL-S640.
Text: as §1, §3, §4, §5, §6, §7

The test system of another series is Ps. Aeruginosa A9843A. Briefly: Antibiotic spectrum in nutrient broth, MIC. Type of series: cell-based. The note with it: Pseudomonas aeruginosa.
Text: as §1, §3, §4, §5, §6, §7

A further series concerns S. aureus Smith A9537. Briefly: Antibiotic spectrum in nutrient broth, MIC. The note with it: Staphylococcus aureus, BL-S1052 adjusted for 97.5% content of BL-S640. Type of series: cell-based.
Text: as §1, §3, §4, §5, §6, §7

Another series deals with K. pneumoniae A9977. Briefly: Antibiotic spectrum in nutrient broth, MIC. Type of series: cell-based. The note with it: Klebsiella pneumoniae, 10^-4 dilution, BL-S1052 adjusted for 97.5% content of BL-S640.
Text: as §1, §3, §4, §5, §6, §7

The next series deals with Ent. cloacae A9657. The series is described as follows: Antibiotic spectrum in nutrient broth, MIC. The series is classed as cell-based. The note with it: Enterobacter cloacae, 10^-4 dilution, BL-S1052 adjusted for 97.5% content of BL-S640.
Text: as §1, §3, §4, §5, §6, §7

Series [2] concerns S. aureus Meth-Res A15097. The series is described as follows: Antibiotic spectrum in nutrient broth, MIC. The series is classed as cell-based. The note with it: Staphylococcus aureus; 10^-3 dilution; BL-S1052 adjusted for 97.5% content of BL-S640.
Text: as §1, §3, §4, §5, §6, §7

A further series concerns Ser. marcescens A20019. Briefly: Antibiotic spectrum in nutrient broth, MIC. Type of series: cell-based. The note with it: Serratia marcescens, 10^-4 dilution, BL-S1052 adjusted for 97.5% content of BL-S640.
Text: as §1, §3, §4, §5, §6, §7

In a further series the test system is E. coli A9675. The series is described as follows: Antibiotic spectrum in nutrient broth, MIC. The series is classed as cell-based. The note with it: Escherichia coli, 10^-4 dilution, BL-S1052 adjusted for 97.5% content of BL-S640.
Text: as §1, §3, §4, §5, §6, §7

For a further series, the system named is Pr. mirabilis A9900. The series is described as follows: Antibiotic spectrum in nutrient broth, MIC. Type of series: cell-based. The note with it: Proteus mirabilis, 10^-4 dilution, BL-S1052 adjusted for 97.5% content of BL-S640.
Text: as §1, §3, §4, §5, §6, §7

The subject of a further series is Ent. cloacae A9656. Briefly: Antibiotic spectrum in nutrient broth, MIC. The series is classed as cell-based. The note with it: Enterobacter cloacae, 10^-4 dilution, BL-S1052 adjusted for 97.5% content of BL-S640.
Text: as §1, §3, §4, §5, §6, §7

The subject of another series is E. coli Juhl A15119. The series is described as follows: Antibiotic spectrum in nutrient broth, MIC. The note with it: Escherichia coli, JUHLA15119; 10^-4 dilution; BL-S1052 adjusted for 97.5% content of BL-S640. Type of series: cell-based.
Text: as §1, §3, §4, §5, §6, §7

A short description of series [3]: Mouse blood levels after IM administration. Type of series: in vivo. The note with it: IM 10 mg./kg. On the procedure: Mouse Blood Levels after IM
Administration of 10 mg./kg. Body Weight
Blood Levels (mcg./ml.)
as §8, §9

A short description of series [4]: Mouse blood levels after PO administration. Type of series: in vivo. The note with it: PO 100 mg./kg. As for the experimental part: ______________________________________
Mouse Blood Levels after PO
Administration of 100 mg./kg. Body Weight
The compounds were prepared in Tween-CMC. BL-S640 was used as standard fo

Series [5] can be described thus: Paper chromatograms of rat urine for antibiotically active metabolites after IM administration. The series is classed as in vivo. The note with it: rat urine 0-2 and 2-4 hours, paper chromatography system No. 9. As for the experimental part:
Paper chromatograms were run on rat urine collected between 0 and 2 and between 2 and 4 hours, following IM administration of BL-S1052 and BL-S640, for the detection of antibiotically active metabolites using descending chromatography with system No. 9 (butyl acetate:n-butanol:glacial acetic acid:H2 O = 80:15:40:24).

Series [6] can be described thus: Loss of bioactivity on storage at elevated temperatures. The series is classed as physicochemical. As for the experimental part:
h. Loss of bioactivity on storage at elevated temperatures: 100° C., 24 hours = <6%; 48 hours = <12%; 56° C., 1 month = <10%.

A further series is described as follows: Bio-assay (mcg./mg.). On the procedure: 7-[D-α-amino-α-(p-hydroxyphenyl)acetamido]-3-(1,2,3-triazol-5-ylthiomethyl)-3-cephem-4-carboxylic acid methanol solvate (15 g.) was slurried in 60 ml. of water. The pH was raised to 6.5 by addition of 4N NaOH and the mixture was passed through a 200 mesh screen. The reaction mixture was slurried at room temperature for 2 hours, the pH being maintained at 6.5 during this period. The crystals were removed by filtration, washed with 20 ml. of water and air dried at 37° C. for 24 hours to give 11.5 g. of title crystalline product. Bio assay = 924 mcg./mg. (average % H2 O, K.F. = 5.26).
7-[D-α-amino-α-(p-hydroxyphenyl)acetamido]-3-(1,2,3-triazol-5-ylthiomethyl)-3-cephem-4-carboxylic acid methanol solvate (200 mesh; 10.0 g.) substantially free of propylene glycol is slurried in 30-40 ml. of deionized water at ambient room temperature (20°-25° C.) to give a pH 3-4 aqueous suspension. NaOH (40%) is slowly added with rapid stirring to bring the pH to 6.3-6.7. The mixture is slurried at pH 6.3-6.7 for 2 hours. The crystals are removed by filtration, washed with water and air dried at room temperature for 24 hours to give a 75-80% weight yield of 950-1000 mcg./mg. crystals of 7-[D-α-amino-α-(p-hydroxyphenyl)acetamido]-3-(1,2,3-triazol-5-ylthiomethyl)-3-cephem-4-carboxylic acid dihydrate. […] H2 O, K.F. = 6.56.

SMILES strings stand for the structures. In brackets after ≈: the same amount, converted by molar mass. Like-named read-outs stand apart in the source and are kept apart here.

For the molecule `N[C@@H](C(=O)N[C@@H]1C(=O)N2C(C(=O)O)=C(CSc3c[nH]nn3)CS[C@H]12)c1ccc(O)cc1` [BL-S640, 7-[D-α-amino-α-(p-hydroxyphenyl)acetamido]-3-(1,2,3-triazol-5-ylthiomethyl)-3-cephem-4-carboxylic acid], the MIC in the series with S. pneumoniae A9585 came out at 0.06 µg/mL; with Str. pyogenes A9604, 0.03 µg/mL; with S. aureus BX1633 (BX1633, 10^-2 dilution, A9606), 4 µg/mL (≈ 8.65 µM); with S. aureus BX1633 (BX1633, 10^-3 dilution, A9696), 0.25 µg/mL (≈ 0.541 µM); in the series with Pr. morganii A15153 it was 32 µg/mL (≈ 69.2 µM); against Ent. cloacae A9659 it was 32 µg/mL (≈ 69.2 µM). Also, the MIC in the series with K. pneumoniae A15130 is 1 µg/mL (≈ 2.16 µM); against Sal. enteritidis A9531, 0.25 µg/mL (≈ 0.541 µM); against Ps. Aeruginosa A9843A it was greater than 125 µg/mL; with S. aureus Smith A9537 (SMITHA9537, 10^-4 dilution, nutrient broth) it was 0.13 µg/mL (≈ 0.281 µM); against S. aureus Smith A9537 (SMITHA9537, +50% serum, 10^-4 dilution), 2 µg/mL (≈ 4.32 µM); with K. pneumoniae A9977, 0.5 µg/mL (≈ 1.08 µM). Besides, the MIC was 0.5 µg/mL (≈ 1.08 µM) against Ent. cloacae A9657; 8 µg/mL (≈ 17.3 µM) in [2]; greater than 125 µg/mL against Ser. marcescens A20019; 2 µg/mL (≈ 4.32 µM) in the series with E. coli A9675; 0.5 µg/mL (≈ 1.08 µM) against Pr. mirabilis A9900; greater than 125 µg/mL against Ent. cloacae A9656. In the series with E. coli Juhl A15119, this molecule registered an MIC of 0.5 µg/mL (≈ 1.08 µM). The dose excreted at 6 h was determined as 24.3% in series [1] (10 mg/kg, IM 10 mg./kg.) and 44.5% in series [1] (50 mg/kg, IM 50 mg./kg.). The dose excreted at 24 h in series [1] (10 mg/kg, IM 10 mg./kg., 0-24 hr) is 25.7%; in [1] (10 mg/kg, IM 10 mg./kg., 6-24 hr), 1.4%; in [1] (50 mg/kg, IM 50 mg./kg., 0-24 hr) it was 47.2%; in [1] (50 mg/kg, IM 50 mg./kg., 6-24 hr) it was 2.7%. For the same molecule, the concentration at 0.25 h in series [3] (0.25 hr) turned out to be 15700 ng/mL. The concentration at 0.5 h was 13200 ng/mL in series [3] (0.5 hr) and 53400 ng/mL in [4] (0.5 hr). Besides, the concentration at 1 h in series [3] (1 hr) was 9500 ng/mL; in series [4] (1 hr), 45400 ng/mL. In addition, the concentration at 1.5 h in series [3] (1.5 hr) came out at 6800 ng/mL. The concentration at 2 h in series [4] (2 hr) was 27200 ng/mL. In [4] (3.5 hr), this molecule yielded a concentration at 3.5 h of 10700 ng/mL. For the same molecule, the “Antibiotically active spots in urine” value in series [5] is given as “Two spots identically located”.
`NC(C(=O)NC1C(=O)N2C(C(=O)O)=C(CSc3c[nH]nn3)CSC12)c1ccc(O)cc1` [7-[D-α-amino-α-(p-hydroxyphenyl)acetamido]-3-(1,2,3-triazol-5-ylthiomethyl)-3-cephem-4-carboxylic acid propylene glycol solvate] yielded a degraded at 720 h in series [6] (56° C., 1 month) of less than 10%. In addition, the degraded at 24 h in [6] (100° C., 24 hours) is less than 6%. In [6] (100° C., 48 hours), this molecule gave a degraded at 48 h of less than 12%.
Regarding `N[C@@H](C(=O)NC1C(=O)N2C(C(=O)O)=C(CSc3c[nH]nn3)CS[C@H]12)c1ccc(O)cc1` (stereo partly drawn) [7-[D-α-amino-α-(p-hydroxyphenyl)acetamido]-3-(1,2,3-triazol-5-ylthiomethyl)-3-cephem-4-carboxylic acid sesquihydrate], in the series “Bio-assay (mcg./mg.)” (sesquihydrate), the Bio-assay was 924 µg/mg.
On to `N[C@@H](C(=O)NC1C(=O)N2C(C(=O)O)=C(CSc3cnn[nH]3)CS[C@H]12)c1ccc(O)cc1.O.O` (stereo partly drawn) [7-[D-α-amino-α-(p-hydroxyphenyl)acetamido]-3-(1,2,3-triazol-5-ylthiomethyl)-3-cephem-4-carboxylic acid dihydrate], for which the Bio-assay in the series “Bio-assay (mcg./mg.)” fell in the range of 950 to 1000 µg/mg.
The same measure, in the same setting: under `NC(C(=O)NC1C(=O)N2C(C(=O)O)=C(CSc3c[nH]nn3)CSC12)c1ccc(O)cc1` [7-[D-α-amino-α-(p-hydroxyphenyl)acetamido]-3-(1,2,3-triazol-5-ylthiomethyl)-3-cephem-4-carboxylic acid methanol solvate] stands 850 to 900 µg/mg.
